Assay results as given in ChEMBL document CHEMBL3352398, “2-(2-Bromophenyl)-formononetin and 2-heptyl-formononetin are PPARγ partial agonists and reduce lipid accumulation in 3T3-L1 adipocytes” (Bioorg Med Chem, 2014).
The source made the active and inactive calls. The calls are words filed in the database; no cut-off is given here.

How the values were obtained:
[1] = biological target: T1, Peroxisome proliferator-activated receptor gamma (Homo sapiens, UniProt P37231); experiment: Binding affinity to PPAR-gamma (unknown origin)
T1 sequence (P37231 whole entry): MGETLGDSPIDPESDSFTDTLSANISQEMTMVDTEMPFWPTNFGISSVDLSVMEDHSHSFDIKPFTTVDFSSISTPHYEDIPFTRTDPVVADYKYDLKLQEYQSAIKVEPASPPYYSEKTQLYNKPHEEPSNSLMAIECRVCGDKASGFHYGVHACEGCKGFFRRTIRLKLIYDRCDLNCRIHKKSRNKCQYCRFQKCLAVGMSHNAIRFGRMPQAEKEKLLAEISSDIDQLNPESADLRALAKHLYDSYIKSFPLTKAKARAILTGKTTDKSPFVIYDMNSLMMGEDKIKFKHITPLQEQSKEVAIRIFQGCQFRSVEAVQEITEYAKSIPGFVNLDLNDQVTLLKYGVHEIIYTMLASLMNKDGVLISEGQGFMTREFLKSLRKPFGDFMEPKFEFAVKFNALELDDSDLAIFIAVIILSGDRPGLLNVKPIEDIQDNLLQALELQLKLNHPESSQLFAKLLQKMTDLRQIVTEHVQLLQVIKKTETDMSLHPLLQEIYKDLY

3T3-L1 [2] = experiment: Effect on adipogenesis in mouse 3T3L1 cells assessed as increase in lipid accumulation at 5 to 50 uM measured on day 8 by fluorescence-based AdipoRed assay; assay type: functional, cell-based
3T3-L1 [3] = experiment: Effect on adipogenesis in mouse 3T3L1 cells assessed as increase in lipid accumulation at 5 to 50 uM measured on day 8 by oil red o assay; assay type: functional, cell-based
[4] = Cytotoxicity against mouse 3T3L1 cells assessed as effect on lactate dehydrogenase release at 5 to 50 uM measured on day 2; assay type: cell-based; details: 3t3-l1, 50 µM
[5] = Cytotoxicity against mouse 3T3L1 cells assessed as effect on lactate dehydrogenase release at 5 to 50 uM measured on day 8; assay type: cell-based; details: 3t3-l1, 50 µM
3T3-L1 [6] = experiment: Effect on adipogenesis in mouse 3T3L1 cells assessed as reduction in Pparg gene expression at 5 to 50 uM after 8 days by real time quantitative PCR analysis relative to vehicle-treated control; assay type: functional, cell-based
3T3-L1 [7] = experiment: Effect on adipogenesis in mouse 3T3L1 cells assessed as reduction in Cebpa gene expression at 5 to 50 uM after 8 days by real time quantitative PCR analysis relative to vehicle-treated control; assay type: functional, cell-based
3T3-L1 [8] = experiment: Effect on adipogenesis in mouse 3T3L1 cells assessed as increase in Srebf1 gene expression at 5 to 50 uM after 8 days by real time quantitative PCR analysis relative to vehicle-treated control; assay type: functional, cell-based
3T3-L1 [9] = experiment: Effect on adipogenesis in mouse 3T3L1 cells assessed as reduction in Fabp4 gene expression at 5 to 50 uM after 8 days by real time quantitative PCR analysis relative to vehicle-treated control; assay type: functional, cell-based
3T3-L1 [10] = experiment: Effect on adipogenesis in mouse 3T3L1 cells assessed as reduction in Adipoq gene expression at 5 to 50 uM after 8 days by real time quantitative PCR analysis relative to vehicle-treated control; assay type: functional, cell-based
3T3-L1 [11] = experiment: Effect on adipogenesis in mouse 3T3L1 cells assessed as reduction in Pparg gene expression at 5 to 50 uM after 4 days by real time quantitative PCR analysis relative to vehicle-treated control; assay type: functional, cell-based
3T3-L1 [12] = experiment: Effect on adipogenesis in mouse 3T3L1 cells assessed as reduction in Cebpa gene expression at 5 to 50 uM after 4 days by real time quantitative PCR analysis relative to vehicle-treated control; assay type: functional, cell-based
3T3-L1 [13] = experiment: Effect on adipogenesis in mouse 3T3L1 cells assessed as reduction in Srebf1 gene expression at 5 to 50 uM after 4 days by real time quantitative PCR analysis relative to vehicle-treated control; assay type: functional, cell-based
3T3-L1 [14] = experiment: Effect on adipogenesis in mouse 3T3L1 cells assessed as reduction in Fabp4 gene expression at 5 to 50 uM after 4 days by real time quantitative PCR analysis relative to vehicle-treated control; assay type: functional, cell-based
3T3-L1 [15] = experiment: Effect on adipogenesis in mouse 3T3L1 cells assessed as reduction in Adipoq gene expression at 5 to 50 uM after 4 days by real time quantitative PCR analysis relative to vehicle-treated control; assay type: functional, cell-based
3T3-L1 [16] = experiment: Effect on adipogenesis in mouse 3T3L1 cells in DI media assessed as increase in lipid accumulation after 8 days by fluorescence-based AdipoRed assay; assay type: functional, cell-based
3T3-L1 [17] = experiment: Effect on adipogenesis in mouse 3T3L1 cells in DI media assessed as increase in fat-laden mature adipocytes after 8 days by oil red o assay; assay type: functional, cell-based
3T3-L1 [18] = experiment: Reduction in triglyceride release in mouse 3T3L1 cells at 50 uM after 48 hrs by fluorescence-based AdipoRed assay; assay type: functional, cell-based
3T3-L1 [19] = experiment: Reduction in triglyceride release in mouse 3T3L1 cells at 50 uM after 48 hrs by oil red o assay; assay type: functional, cell-based
[20] = Cytotoxicity against mouse 3T3L1 cells assessed as LDH release at 50 uM after 48 hrs; assay type: cell-based; details: 3t3-l1, 48 h
3T3-L1 [21] = experiment: Effect on lipolysis in mouse 3T3L1 cells assessed as reduction in glycerol level at 5 to 50 uM after 48 hrs by UV-Vis spectrophotometry; assay type: functional, cell-based
3T3-L1 [22] = experiment: Induction of lipolysis in mouse 3T3L1 cells assessed as up-regulation of Atgl gene exression by real time-qPCR analysis; assay type: functional, cell-based
[23] = biological target: T2, Peroxisome proliferator-activated receptor gamma (Homo sapiens) (UniProt P37231); experiment: Competitive binding to human GST-tagged PPAR-gamma at <=100 uM by TR-FRET assay
T2 sequence (whole entry): T1 sequence (P37231 whole entry)

[24] = biological target: T3, Peroxisome proliferator-activated receptor gamma (Mus musculus) (UniProt P37238); experiment: Agonist activity at PPAR-gamma in mouse embryo fibroblast at 5 to 50 uM by transactivation assay relative to rosiglitazone
T3 sequence (whole entry): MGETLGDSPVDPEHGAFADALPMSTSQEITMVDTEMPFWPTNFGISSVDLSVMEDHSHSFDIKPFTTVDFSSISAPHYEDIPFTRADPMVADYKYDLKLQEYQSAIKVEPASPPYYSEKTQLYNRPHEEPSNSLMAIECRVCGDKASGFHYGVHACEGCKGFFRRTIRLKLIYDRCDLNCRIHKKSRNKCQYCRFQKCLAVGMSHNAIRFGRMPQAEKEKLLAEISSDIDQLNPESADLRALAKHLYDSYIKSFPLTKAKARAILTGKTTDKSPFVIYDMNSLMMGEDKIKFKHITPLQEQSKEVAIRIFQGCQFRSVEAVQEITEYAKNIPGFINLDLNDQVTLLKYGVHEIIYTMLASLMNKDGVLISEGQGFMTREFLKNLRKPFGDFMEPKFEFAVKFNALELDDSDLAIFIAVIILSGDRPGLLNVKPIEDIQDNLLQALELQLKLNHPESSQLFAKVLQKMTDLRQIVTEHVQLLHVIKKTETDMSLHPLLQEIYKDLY

3T3-L1 [25] = experiment: Activation of AMPK in mouse 3T3L1 cells assessed as AMPK phosphorylation at 50 uM after 5 to 48 hrs by Western blotting analysis; assay type: cell-based
[26] = Effect on adipogenesis in mature mouse 3T3L1 cells assessed as upregulation of Sirt1 gene expression; assay type: functional, cell-based; details: 3T3-L1
[27] = biological target: Peroxisome proliferator-activated receptor gamma (Mus musculus) (UniProt P37238); experiment: Partial agonist activity at PPAR-gamma in mouse embryo fibroblast assessed as reduction in activation at 5 to 50 uM by transactivation assay in presence of rosiglitazone
3T3-L1 [28] = experiment: Activation of AMPK in mouse 3T3L1 cells assessed as AMPK phosphorylation at 500 uM after 5 hrs by Western blotting analysis; assay type: cell-based
3T3-L1 [29] = experiment: Reduction of adipogenesis in mouse 3T3L1 cells assessed as decrease in lipid accumulation measured on day 8 by fluorescence-based AdipoRed assay; assay type: functional, cell-based
3T3-L1 [30] = experiment: Reduction of adipogenesis in mouse 3T3L1 cells assessed as decrease in lipid accumulation measured on day 8 by oil red o assay; assay type: functional, cell-based
3T3-L1 [31] = experiment: Effect on adipogenesis in mouse 3T3L1 cells in DI media assessed as increase in lipid accumulation at <25 uM after 8 days by fluorescence-based AdipoRed assay; assay type: functional, cell-based
3T3-L1 [32] = experiment: Effect on adipogenesis in mouse 3T3L1 cells in DI media assessed as increase in fat-laden mature adipocytes at <25 uM after 8 days by oil red o assay; assay type: functional, cell-based
3T3-L1 [33] = experiment: Effect on adipogenesis in mouse 3T3L1 cells in DI media assessed as reduction in lipid accumulation at 50 uM measured on day 8 by fluorescence-based AdipoRed assay; assay type: functional, cell-based
3T3-L1 [34] = experiment: Effect on adipogenesis in mouse 3T3L1 cells in DI media assessed as reduction in fat-laden mature adipocytes at 50 uM after 8 days by oil red o assay; assay type: functional, cell-based
3T3-L1 [35] = experiment: Reduction in lipogenesis in mouse 3T3L1 cells assessed as down regulation of Scd1 gene exression by real time-qPCR analysis; assay type: functional, cell-based
3T3-L1 [36] = experiment: Induction of lipolysis in mouse 3T3L1 cells assessed as up-regulation of Acox1 gene exression by real time-qPCR analysis; assay type: functional, cell-based
[37] = biological target: T3, Peroxisome proliferator-activated receptor gamma (Mus musculus); experiment: Agonist activity at PPAR-gamma in mouse embryo fibroblast by transactivation assay relative to rosiglitazone
[38] = biological target: T4, Peroxisome proliferator-activated receptor alpha (Homo sapiens) (UniProt Q07869); experiment: Agonist activity at PPAR-alpha (unknown origin) by transactivation assay
T4 sequence (whole entry): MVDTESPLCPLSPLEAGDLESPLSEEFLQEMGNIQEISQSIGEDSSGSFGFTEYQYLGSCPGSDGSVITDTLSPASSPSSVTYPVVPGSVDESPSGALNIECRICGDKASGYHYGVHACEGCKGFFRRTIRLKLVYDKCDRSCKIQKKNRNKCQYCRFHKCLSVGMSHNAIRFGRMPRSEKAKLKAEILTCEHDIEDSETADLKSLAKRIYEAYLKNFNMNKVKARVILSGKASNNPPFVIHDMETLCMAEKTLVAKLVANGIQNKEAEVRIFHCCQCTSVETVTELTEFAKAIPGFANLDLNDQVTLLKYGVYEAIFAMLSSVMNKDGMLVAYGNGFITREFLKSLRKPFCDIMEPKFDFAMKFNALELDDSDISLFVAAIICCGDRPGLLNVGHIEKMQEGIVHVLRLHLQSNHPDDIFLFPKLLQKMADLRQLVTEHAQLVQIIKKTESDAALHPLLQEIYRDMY

[39] = biological target: T5, Peroxisome proliferator-activated receptor delta (Homo sapiens) (UniProt Q03181); experiment: Agonist activity at PPAR-delta (unknown origin) by transactivation assay
T5 sequence (whole entry): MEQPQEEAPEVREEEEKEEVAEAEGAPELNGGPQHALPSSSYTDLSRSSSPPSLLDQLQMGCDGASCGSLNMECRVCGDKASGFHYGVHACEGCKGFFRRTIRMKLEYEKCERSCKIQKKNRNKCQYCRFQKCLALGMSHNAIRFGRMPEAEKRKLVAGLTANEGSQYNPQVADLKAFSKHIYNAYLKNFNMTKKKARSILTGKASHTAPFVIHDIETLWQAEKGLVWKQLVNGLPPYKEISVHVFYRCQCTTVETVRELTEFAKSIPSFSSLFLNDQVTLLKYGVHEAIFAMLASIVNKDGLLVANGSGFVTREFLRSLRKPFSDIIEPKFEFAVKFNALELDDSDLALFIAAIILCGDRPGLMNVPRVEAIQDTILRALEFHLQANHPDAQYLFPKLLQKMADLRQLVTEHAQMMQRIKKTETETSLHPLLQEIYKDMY

[40] = biological target: Peroxisome proliferator-activated receptor gamma (Mus musculus) (UniProt P37238); experiment: Partial agonist activity at PPAR-gamma in mouse embryo fibroblast assessed as reduction in activation by transactivation assay in presence of rosiglitazone

SMILES: COc1ccc(C(C)C(=O)c2ccc(O)cc2O)cc1 (stereo unspecified)
- IC50 [1]: 26 µM

SMILES: COc1ccc(-c2coc3cc(O)ccc3c2=O)cc1 [FORMONONETIN]
- Activity (3T3-L1 [2]): Active
- Activity (3T3-L1 [3]): Active
- Activity [4]: Non-toxic
- Activity [5]: Non-toxic
- Activity (3T3-L1 [6]): Active
- Activity (3T3-L1 [7]): Active
- Activity (3T3-L1 [8]): inactive
- Activity (3T3-L1 [9]): Active
- Activity (3T3-L1 [10]): Active
- Activity (3T3-L1 [11]): Active
- Activity (3T3-L1 [12]): Active
- Activity (3T3-L1 [13]): inactive
- Activity (3T3-L1 [14]): Active
- Activity (3T3-L1 [15]): Active
- Activity (3T3-L1 [16]): Dose-dependent effect
- Activity (3T3-L1 [17]): Dose-dependent effect
- Activity (3T3-L1 [18]): inactive
- Activity (3T3-L1 [19]): inactive
- Activity [20]: Non-toxic
- Activity (3T3-L1 [21]): Active
- Activity (3T3-L1 [22]): Active
- Activity [23]: inactive
- Activity [24]: inactive
- Activity (3T3-L1 [25]): inactive
- Activity [26]: inactive
- Activity [27]: Active

SMILES: NC(=O)c1ncn([C@@H]2O[C@H](CO)[C@@H](O)[C@H]2O)c1N
- Activity (3T3-L1 [28]): Active

SMILES: COc1ccc(C2COc3cc(O)ccc3C2=O)cc1 (stereo unspecified)
- IC50 [1]: 124 µM

SMILES: COc1ccc(-c2c(-c3ccccc3Br)oc3cc(O)ccc3c2=O)cc1
- Activity (3T3-L1 [29]): Dose-dependent effect
- Activity (3T3-L1 [30]): Dose-dependent effect
- Activity [4]: Non-toxic
- Activity [5]: Non-toxic
- Activity (3T3-L1 [31]): Active
- Activity (3T3-L1 [32]): Active
- Activity (3T3-L1 [33]): Active
- Activity (3T3-L1 [34]): Active
- Activity (3T3-L1 [18]): Active
- Activity (3T3-L1 [19]): Active
- Activity [20]: Toxic
- Activity (3T3-L1 [21]): Active
- Activity (3T3-L1 [35]): Active
- Activity (3T3-L1 [36]): Active
- Activity [23]: Active
- Activity [24]: 4%
- Activity [37]: Dose-dependent effect
- Activity [38]: inactive
- Activity [39]: inactive
- Activity (3T3-L1 [25]): inactive
- Activity [26]: inactive
- Activity [40]: Dose-dependent effect
